Measurements from paper PMC8612341, “Cyclic ^68Ga-Labeled Peptides for Specific Detection of Human Angiotensin-Converting Enzyme 2” (Journal of Nuclear Medicine, 2021).
Where a SMILES comes first, the peptide text is derived from it. Bridges are numbered along the chain shown (N, C = ends). The star is where a group is joined. NOTA = O=C(O)CN1CCN(CC(=O)O)CCN(CC(=O)*)CC1

Tests used:
[1] = molecular target: T1, ACE2 (Homo sapiens, UniProt Q9BYF1); assay: ACE2 inhibition assay (SensoLyte 390 ACE2 Activity Assay Kit, fluorimetric, AnaSpec); assay type: biochemical; settings: for IC50: nonlinear fit of 6-point dilution series, Fig. 2D
T1 construct: purchased AnaSpec AS-72086
Experimental: Six DX600-derived peptides, named NOTA-PEP1 to NOTA-PEP6 (cyclic vs. noncyclic, with triglycine, aminocaproate, and polyethylene glycol linkers), were studied using a commercially available ACE2 inhibition assay according to the manufacturer’s instructions (SensoLyte 390 ACE2 Activity Assay Kit *Fluorimetric*, AS-72086; AnaSpec). Each peptide inhibitor was first tested at 4 concentrations. Initial velocities were determined relative to the inhibitor free reaction. Subsequently, IC50 values were derived from nonlinear fits of saturation curves of a 6-point dilution series of peptide inhibitors.

[2] = molecular target: T1, ACE2; parameters: method as in earlier work; settings: vs. ACE and carboxypeptidase A; ref 30 (Huang et al.); cited from earlier work
[3] = fluorometric ACE2 inhibition assay (AnaSpec)

T1 sequence (Q9BYF1 18-805): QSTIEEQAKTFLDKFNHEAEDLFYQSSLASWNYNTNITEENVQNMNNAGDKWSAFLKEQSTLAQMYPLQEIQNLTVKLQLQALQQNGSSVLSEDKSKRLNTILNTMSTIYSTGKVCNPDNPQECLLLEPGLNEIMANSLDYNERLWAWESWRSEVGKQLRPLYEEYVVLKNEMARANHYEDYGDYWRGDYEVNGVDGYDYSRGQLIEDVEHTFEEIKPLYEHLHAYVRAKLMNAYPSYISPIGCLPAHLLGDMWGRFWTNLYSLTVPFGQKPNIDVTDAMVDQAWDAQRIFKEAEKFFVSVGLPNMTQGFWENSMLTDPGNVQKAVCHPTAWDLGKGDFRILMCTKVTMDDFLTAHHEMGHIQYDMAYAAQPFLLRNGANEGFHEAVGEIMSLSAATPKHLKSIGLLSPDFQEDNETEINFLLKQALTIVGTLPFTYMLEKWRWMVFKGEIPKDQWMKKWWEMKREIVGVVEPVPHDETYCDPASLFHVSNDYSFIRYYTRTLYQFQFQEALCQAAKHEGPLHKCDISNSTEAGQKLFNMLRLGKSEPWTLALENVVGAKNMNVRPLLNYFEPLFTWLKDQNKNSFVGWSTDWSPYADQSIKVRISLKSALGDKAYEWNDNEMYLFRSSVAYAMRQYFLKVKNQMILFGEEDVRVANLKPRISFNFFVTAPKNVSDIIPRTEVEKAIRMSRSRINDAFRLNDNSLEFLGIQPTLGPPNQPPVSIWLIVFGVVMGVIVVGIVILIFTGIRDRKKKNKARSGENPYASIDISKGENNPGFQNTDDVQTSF

Row | Compound | IC50 [1, 3] [µM] | Change of observed ACE2 IC50 on addition of tris(2-carboxyethyl)phosphine (TCEP) ([1]; TCEP reduces the disulfide bridge (producing linear NOTA-PEP5), Fig. 2E) | ACE2 inhibition compared with parent DX600 peptide ([1]; fluorometric ACE2 inhibition assay (AnaSpec), Figs. 2C and 2D) | Specificity for ACE2 [2]
1 | CC(C)C[C@H](NC(=O)[C@@H]1CCCN1C(=O)[C@H](CO)NC(=O)[C@H](CS)NC(=O)[C@H](Cc1c[nH]cn1)NC(=O)[C@H](CO)NC(=O)[C@H](Cc1ccc(O)cc1)NC(=O)[C@H](CC(=O)O)NC(=O)CNC(=O)CNC(=O)CNC(=O)CNC(=O)CN1CCN(CC(=O)O)CCN(CC(=O)O)CC1)C(=O)N[C@@H](CCCNC(=N)N)C(=O)N[C@@H](Cc1ccc(O)cc1)C(=O)N[C@@H](Cc1ccc(O)cc1)C(=O)N1CCC[C@H]1C(=O)N[C@@H](Cc1c[nH]c2ccccc12)C(=O)N[C@@H](Cc1c[nH]c2ccccc12)C(=O)N[C@@H](CCCCN)C(=O)N[C@@H](CS)C(=O)N[C@H](C(=O)N[C@@H](Cc1ccc(O)cc1)C(=O)N1CCC[C@H]1C(=O)N[C@@H](CC(=O)O)C(=O)N1CCC[C@H]1C(=O)N[C@@H](CCC(=O)O)C(=O)NCC(=O)NCC(=O)NCC(N)=O)[C@@H](C)O [NOTA-PEP1] ({NOTA}-GGGGDYSHCSPLRYYPWWKCTYPDPEGGG-NH2) | 2.4 | – | – | –
2 | CC(C)C[C@@H]1NC(=O)[C@@H]2CCCN2C(=O)[C@H](CO)NC(=O)[C@@H](NC(=O)[C@H](Cc2c[nH]cn2)NC(=O)[C@H](CO)NC(=O)[C@H](Cc2ccc(O)cc2)NC(=O)[C@H](CC(=O)O)NC(=O)CNC(=O)CNC(=O)CNC(=O)CNC(=O)CN2CCN(CC(=O)O)CCN(CC(=O)O)CC2)CSSC[C@@H](C(=O)N[C@H](C(=O)N[C@@H](Cc2ccc(O)cc2)C(=O)N2CCC[C@H]2C(=O)N[C@@H](CC(=O)O)C(=O)N2CCC[C@H]2C(=O)N[C@@H](CCC(=O)O)C(=O)NCC(=O)NCC(=O)NCC(N)=O)[C@@H](C)O)NC(=O)[C@H](CCCCN)NC(=O)[C@H](Cc2c[nH]c3ccccc23)NC(=O)[C@H](Cc2c[nH]c3ccccc23)NC(=O)[C@@H]2CCCN2C(=O)[C@H](Cc2ccc(O)cc2)NC(=O)[C@H](Cc2ccc(O)cc2)NC(=O)[C@H](CCCNC(=N)N)NC1=O [NOTA-PEP2] ({NOTA}-GGGGDYSHCSPLRYYPWWKCTYPDPEGGG-NH2; disulfide 9-20) | 0.101 | – | – | –
3 | CC(=O)NCC(=O)N[C@@H](CC(=O)O)C(=O)N[C@@H](Cc1ccc(O)cc1)C(=O)N[C@@H](CO)C(=O)N[C@@H](Cc1c[nH]cn1)C(=O)N[C@H]1CSSC[C@@H](C(=O)N[C@H](C(=O)N[C@@H](Cc2ccc(O)cc2)C(=O)N2CCC[C@H]2C(=O)N[C@@H](CC(=O)O)C(=O)N2CCC[C@H]2C(=O)N[C@@H](CCC(=O)O)C(=O)NCC(=O)NCC(=O)NCC(N)=O)[C@@H](C)O)NC(=O)[C@H](CCCCN)NC(=O)[C@H](Cc2c[nH]c3ccccc23)NC(=O)[C@H](Cc2c[nH]c3ccccc23)NC(=O)[C@@H]2CCCN2C(=O)[C@H](Cc2ccc(O)cc2)NC(=O)[C@H](Cc2ccc(O)cc2)NC(=O)[C@H](CCCNC(=N)N)NC(=O)[C@H](CC(C)C)NC(=O)[C@@H]2CCCN2C(=O)[C@H](CO)NC1=O [DX600, reference compound] | 0.114 | – | – | specificity for ACE2 vs. ACE and carboxypeptidase A

Second part, led by results:

Row | IC50 [1, 3] [µM] | Change of observed ACE2 IC50 on addition of tris(2-carboxyethyl)phosphine (TCEP) ([1]; TCEP reduces the disulfide bridge (producing linear NOTA-PEP5), Fig. 2E) | ACE2 inhibition compared with parent DX600 peptide ([1]; fluorometric ACE2 inhibition assay (AnaSpec), Figs. 2C and 2D) | Compound | Specificity for ACE2 [2]
4 | 0.0676 | – | – | CC(C)C[C@@H]1NC(=O)[C@@H]2CCCN2C(=O)[C@H](CO)NC(=O)[C@@H](NC(=O)[C@H](Cc2c[nH]cn2)NC(=O)[C@H](CO)NC(=O)[C@H](Cc2ccc(O)cc2)NC(=O)[C@H](CC(=O)O)NC(=O)CNC(=O)CCCCCNC(=O)CN2CCN(CC(=O)O)CCN(CC(=O)O)CC2)CSSC[C@@H](C(=O)N[C@H](C(=O)N[C@@H](Cc2ccc(O)cc2)C(=O)N2CCC[C@H]2C(=O)N[C@@H](CC(=O)O)C(=O)N2CCC[C@H]2C(=O)N[C@@H](CCC(=O)O)C(=O)NCC(=O)NCC(=O)NCC(N)=O)[C@@H](C)O)NC(=O)[C@H](CCCCN)NC(=O)[C@H](Cc2c[nH]c3ccccc23)NC(=O)[C@H](Cc2c[nH]c3ccccc23)NC(=O)[C@@H]2CCCN2C(=O)[C@H](Cc2ccc(O)cc2)NC(=O)[C@H](Cc2ccc(O)cc2)NC(=O)[C@H](CCCNC(=N)N)NC1=O [NOTA-PEP4] | –
5 | – | markedly increased | nearly identical to DX600 | CC(C)C[C@@H]1NC(=O)[C@@H]2CCCN2C(=O)[C@H](CO)NC(=O)[C@@H](NC(=O)[C@H](Cc2c[nH]cn2)NC(=O)[C@H](CO)NC(=O)[C@H](Cc2ccc(O)cc2)NC(=O)[C@H](CC(=O)O)NC(=O)CNC(=O)CCOCCOCCNC(=O)CN2CCN(CC(=O)O)CCN(CC(=O)O)CC2)CSSC[C@@H](C(=O)N[C@H](C(=O)N[C@@H](Cc2ccc(O)cc2)C(=O)N2CCC[C@H]2C(=O)N[C@@H](CC(=O)O)C(=O)N2CCC[C@H]2C(=O)N[C@@H](CCC(=O)O)C(=O)NCC(=O)NCC(=O)NCC(N)=O)[C@@H](C)O)NC(=O)[C@H](CCCCN)NC(=O)[C@H](Cc2c[nH]c3ccccc23)NC(=O)[C@H](Cc2c[nH]c3ccccc23)NC(=O)[C@@H]2CCCN2C(=O)[C@H](Cc2ccc(O)cc2)NC(=O)[C@H](Cc2ccc(O)cc2)NC(=O)[C@H](CCCNC(=N)N)NC1=O [NOTA-PEP6] | –
